Like-named read-outs stand apart in the source and are kept apart here.
Tests used:
[1] = NuTide:701 first-in-human phase I study; assay type: in vivo
Protocol: A Safety Study of NUC-7738 in Patients with Advanced Solid Tumours or Lymphoma, ClinicalTrials number: NCT03829254. Approved by Oxford C Ethics Committee ref 18/SC/0628.
This study is currently ongoing at three centers in the United Kingdom: Edinburgh, Newcastle, and Oxford. As of June 1, 2021, 28 patients with advanced cancers have been enrolled and received escalating doses of 14–900 mg/m^2 (intravenous infusion from 30–120 minutes) once weekly until dose-limiting toxicity or disease progression occurs. Intrapatient dose escalation ensures those starting at lower dose levels of NUC-7738 are continuously moved to higher doses once safety has been established. The most common cancers to be included are immunotherapy-resistant melanoma (n = 8), colorectal cancer (n = 3), and gastric and lung cancer (n = 2 each). […] A posttreatment biopsy was taken from a patient with melanoma and compared with their archived specimen collected prior to enrolling in the clinical trial. […] Transcriptional profiling of the specimens using RNA-seq identified more than 1,069 genes which were at least 2-fold differentially expressed after treatment with NUC-7738 (Fig. 6C and Supplementary Fig. S6A–C).

[2] = system: HAP1 cells; assay: MTT cell viability, HAP1 cells; assay type: cell-based; details: Homo sapiens
Protocol: (§1) Cells (10^4) were seeded into 96-well plates and then treated with NUC-7738 (lot 5132/E00393/119) or 3′-dA (cordycepin, catalog no. C3394, lot 067M4182, Sigma) for 48 hours. One and a half milligrams per milliliter MTT (catalog no. M6494, Invitrogen) in a 1:1 ratio was added to cell culture media. After a 2-hour incubation at 37°C, media was removed and 70 μl of isopropanol was added. Optical densities at 570 nm were measured using POLARstar Omega plate reader. Readouts were normalized and IC50 values were calculated using a nonlinear regression model in Graphpad prism (v8.3.0). Each biological replicate (at least 3) was performed in 4 technical replicates to calculate the average IC50 value. To measure apoptosis, the Guava NexinReagent (Luminex Corp.) was used following manufacturer's instructions. Fluorescence staining was measured with an automated 96-well Guava easyCyte Flow Cytometer (Luminex Corp.).

[3] = system: renal cancer cell lines; assay: siRNA HINT1 knockdown in renal cancer cell lines; assay type: cell-based
Protocol: Cells were transfected with stealth siRNA (catalog no. HSS104782, catalog no. HSS104784, catalog no. HSS179235; ThermoFisher) targeting HINT-1 using Lipofectamine RNAiMAX (Invitrogen) following the manufacturer's protocol. At 48 hours posttransfection, cells were treated and cell viability was measured 96 hours posttransfection as described above. Samples for Western blot analysis were harvested 48 hours posttransfection. For gene-depletion experiments, approximately 4 × 10^5 HAP1 cells were seeded per well in a 6-well plate and grown to approximately 50% confluency. After 24 hours, cells were transfected with lentiCRISPR v2 plasmid (GenScript) containing a guide RNA (gRNA) targeting gene of interest using Turbofectin (catalog no. TF81001, OriGene) according to manufacturer's instruction. The following sequences were used: HINT-1 CRISPR gRNA 2 ([…]) and NUDT2 CRISPR gRNA 2 ([…]). At 24 hours posttransfection, positively transfected cells were selected using […] puromycin for 72 hours. After selection, surviving colonies were expanded and used for downstream analysis. For clonal selection, clones were selected using limited dilution and expanded into a 6-well plate for Western blot screening.

[4] = system: human ccRCC tissue slices; assay: Ex vivo tissue slice culture of clear cell renal carcinoma; assay type: cell-based; details: 0, 5 and 25 μmol/L, 24 hours
Text: A fresh sample of clear cell renal carcinoma (ccRCC) was placed in formalin to serve as a formalin control for our experiment. The sample was transported in precooled 199 medium (catalog no. 2154) supplemented with penicillin/streptomycin (1%), Normocin (0.2%), and Glutamax (2 mmol/L). The tissue sample was embedded in low-melting point agarose gel and sliced into 250-μm sections using a Vibratome VT1000S (Leica Biosystems). Tissue slices were put immediately into media (199 medium supplemented with 10% FBS, 2 mmol/L Glutamax, and 1% penicillin/streptomycin) containing different concentrations of NUC-7738 (0, 5, and 25 μmol/L) and incubated for 24 hours at 37°C. Treated tissue sections were then fixed using PFA for 1 hour at room temperature and stored in PBS at 4°C. The treated slices were later embedded in paraffin and subsequently sliced into 3-μm sections using a microtome. The sections were placed on slides and baked overnight at 40°C. Sections were dewaxed using xylene and rehydrated in a graded alcohol series followed by tap water. […]
Immunofluorescence staining was performed using BOND RX. NF-κB p65 (catalog no. 4764, CST) and cleaved caspase-3 (catalog no. 9661, CST) were detected with HRP-conjugated secondary antibody and visualized using tyramide-fluorophore conjugates (TSA Cy5 for both). […]

[5] = system: UO-31; assay: MTT cell viability, UO-31; assay type: cell-based; details: Homo sapiens, UO-31, 48 h
Protocol: as §1

[6] = system: ACHN; assay: MTT cell viability, ACHN; assay type: cell-based; details: Homo sapiens, 48 h
Protocol: as §1

[7] = system: Tera-1; assay: MTT cell viability, Tera-1; assay type: cell-based
Protocol: as §1

[8] = system: HAP1 cells; assay: HAP1 viability with ADA, hENT1 or ADK inhibitors; assay type: cell-based, human; details: HAP1, EHNA, NBTI, A134974
Protocol: as §1
To assess whether NUC-7738 was resistant to ADA and could bypass ADK and hENT1 (SLC29A1), cell viability was measured after treatment with their specific and corresponding protein inhibitors: erythro-9-(2-Hydroxy-3-nonyl) adenine hydrochloride (EHNA), A134974, and S-(4-nitrobenzyl)-6-thioinosine (NBTI), respectively ([16, 17, 34, 35]).

[9] = system: A498; assay: MTT cell viability, A498; assay type: cell-based; details: Homo sapiens, A498, 48 h
Protocol: as §1

## C[C@H](NP(=O)(OC[C@@H]1C[C@@H](O)[C@H](n2cnc3c(N)ncnc32)O1)Oc1ccccc1)C(=O)OCc1ccccc1 (stereo partly drawn) [NUC-7738, 3′-deoxyadenosine-5′-O-phenyl-(benzyloxy-L-alaninyl)-phosphate]
[1]; patients with advanced cancers, 14–900 mg/m^2 iv once weekly
  tolerability: well tolerated with no dose-limiting toxicities reported
[1]; patients, escalating doses
  plasma PK profile: dose-proportional increase in Cmax and AUC
[2]; HAP1, 48 h
  IC50: 7.32 µM
  IC90: 54.2 µM
[2]; HAP1, read-out: IC50 concentration used for RNA-seq
  IC50: 7.6 µM
[2]; HAP1, read-out: IC90 concentration used for RNA-seq
  IC90: 125 µM
[3]
  sensitivity after HINT1 depletion to minimal residual levels: no difference in sensitivity
[4]
  nuclear p65 and tumor-cell apoptosis: dose-dependent decrease in nuclear p65 and an increase in tumor-cell apoptosis
[5]
  IC50: 42.2 µM
[6]
  IC50: 54.7 µM
[7]; 48 h
  IC50: 4.36 µM
[7]; Tera-1 teratocarcinoma
  sensitivity to NUC-7738 compared with 3′-dA: more than 40 fold
[8]
  potency upon inhibition of ADA, hENT1 or ADK: mostly unaffected
[9]
  IC50: 48.5 µM
